In US20250230193A1, “CYCLIC COMPOUND HAVING SELECTIVE KRAS INHIBITORY EFFECT ON HRAS AND NRAS” (CHUGAI SEIYAKU KABUSHIKI KAISHA, priority 2022, published 2025):
Where a SMILES comes first, the peptide text is derived from it. Bridges are numbered along the chain shown (N, C = ends). [ ]: non-standard residue; d: D form. The star is where a group is joined. hPhe(3-Cl-4-CF3) = N[C@@H](CCc1ccc(C(F)(F)F)c(Cl)c1)C(=O)O; NPrPhe(4-CF3) = CCCN[C@@H](Cc1ccc(C(F)(F)F)cc1)C(=O)O; Piperazinyl(4-(3-oxetanyl)) = C1OCC1N1CCN(*)CC1; 3Oxa8azabicyclo(3.2.1)octane = C1CC2COCC1N2*; NMeAbu(4,4,4-F3) = CN[C@@H](CC(F)(F)F)C(=O)O; NMeGly(cPent) = CN[C@H](C(=O)O)C1CCCC1; NMeGly(cBu) = CN[C@H](C(=O)O)C1CCC1; Piperidide(4-Me) = CC1CCN(*)CC1; NMeD = CN[C@@H](CC(=O)O)C(=O)O; NMeL = CN[C@@H](CC(C)C)C(=O)O; Oxazolidin(3-yl) = C1CN(*)CO1; NMeNva = CCC[C@H](NC)C(=O)O; Azetidin(1-yl) = C1CN(*)C1; NMeAbu = CC[C@H](NC)C(=O)O; Morpholide = C1CN(*)CCO1; NMeA = CN[C@@H](C)C(=O)O; Piperidide = C1CCN(*)CC1; Pyrrolidide = C1CCN(*)C1; Ac5c = NC1(C(=O)O)CCCC1; Aze = O=C(O)[C@@H]1CCN1; X25 = CC1(C)CCN(*)C1; Sar = CNCC(=O)O

Assays:
[1] = biological target: GDP-bound HRAS wild-type protein (Homo sapiens, UniProt P01112); experiment: Binding to HRAS by surface plasmon resonance (SPR), Single Cycle Kinetics; conditions: KD ratio HRAS/KRAS, SPR
GDP-bound HRAS wild-type protein, sequence (P01112 whole entry): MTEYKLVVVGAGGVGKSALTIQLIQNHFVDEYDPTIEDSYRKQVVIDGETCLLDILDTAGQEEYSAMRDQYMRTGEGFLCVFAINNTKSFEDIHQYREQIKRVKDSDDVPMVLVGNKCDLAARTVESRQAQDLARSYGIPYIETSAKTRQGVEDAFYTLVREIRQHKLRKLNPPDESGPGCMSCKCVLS

[2] = biological target: GDP-bound NRAS wild-type protein (Homo sapiens, UniProt P01111); experiment: Binding to NRAS by surface plasmon resonance (SPR), Single Cycle Kinetics; conditions: KD ratio NRAS/KRAS, SPR
GDP-bound NRAS wild-type protein, sequence (P01111 whole entry): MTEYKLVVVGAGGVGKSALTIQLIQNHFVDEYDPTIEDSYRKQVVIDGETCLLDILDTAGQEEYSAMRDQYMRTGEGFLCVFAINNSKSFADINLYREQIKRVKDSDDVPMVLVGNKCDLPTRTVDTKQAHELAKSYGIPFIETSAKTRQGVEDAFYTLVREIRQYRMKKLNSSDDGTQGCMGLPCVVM

SMILES | HRAS/KRAS (ratio of KD for GDP-bound HRAS wild-type to KD for KRAS) [1] | NRAS/KRAS (ratio of KD for GDP-bound NRAS wild-type to KD for KRAS) [2]
CCCN1C(=O)[C@@H]2CCN2C(=O)[C@H](C)N(C)C(=O)[C@H]([C@@H](C)CC)NC(=O)[C@H](CC(C)C)N(C)C(=O)C[C@@H](C(=O)N2CCCC2)N(C)C(=O)[C@H](C2CCCC2)N(C)C(=O)C2(CCCC2)NC(=O)[C@@H]2CCCN2C(=O)[C@H](CCc2ccc(C(F)(F)F)c(Cl)c2)NC(=O)CN(C)C(=O)[C@@H]1Cc1ccc(C(F)(F)F)cc1 [PP0179] ([NMeL]I[NMeA][Aze][NPrPhe(4-CF3)][Sar][hPhe(3-Cl-4-CF3)]P[Ac5c][NMeGly(cPent)][NMeD]-Pyrrolidide; lactam N-11) | B (a compound having 3 or more and less than 10 is denoted as B) | C (A compound having a KD ratio of 0.1 or more and less than 3 is denoted as C)
CCCN1C(=O)[C@@H]2CCN2C(=O)[C@H](C)N(C)C(=O)[C@H]([C@@H](C)CC)NC(=O)[C@H](CC(C)C)N(C)C(=O)C[C@@H](C(=O)N2CCCCC2)N(C)C(=O)[C@H](C2CCCC2)N(C)C(=O)C2(CCCC2)NC(=O)[C@@H]2CCCN2C(=O)[C@H](CCc2ccc(C(F)(F)F)c(Cl)c2)NC(=O)CN(C)C(=O)[C@@H]1Cc1ccc(C(F)(F)F)cc1 [PP0180] ([NMeL]I[NMeA][Aze][NPrPhe(4-CF3)][Sar][hPhe(3-Cl-4-CF3)]P[Ac5c][NMeGly(cPent)][NMeD]-Piperidide; lactam N-11) | C (A compound having a KD ratio of 0.1 or more and less than 3 is denoted as C) | C (A compound having a KD ratio of 0.1 or more and less than 3 is denoted as C)
CCCN1C(=O)[C@@H]2CCN2C(=O)[C@H](C)N(C)C(=O)[C@H]([C@@H](C)CC)NC(=O)[C@H](CC(C)C)N(C)C(=O)C[C@@H](C(=O)N2CCC2)N(C)C(=O)[C@H](C2CCCC2)N(C)C(=O)C2(CCCC2)NC(=O)[C@@H]2CCCN2C(=O)[C@H](CCc2ccc(C(F)(F)F)c(Cl)c2)NC(=O)CN(C)C(=O)[C@@H]1Cc1ccc(C(F)(F)F)cc1 [PP0181] ([NMeL]I[NMeA][Aze][NPrPhe(4-CF3)][Sar][hPhe(3-Cl-4-CF3)]P[Ac5c][NMeGly(cPent)][NMeD]-{Azetidin(1-yl)}; lactam N-11) | B (a compound having 3 or more and less than 10 is denoted as B) | C (A compound having a KD ratio of 0.1 or more and less than 3 is denoted as C)
CCCN1C(=O)[C@@H]2CCN2C(=O)[C@H](C)N(C)C(=O)[C@H]([C@@H](C)CC)NC(=O)[C@H](CC(C)C)N(C)C(=O)C[C@@H](C(=O)N2C3CCC2COC3)N(C)C(=O)[C@H](C2CCCC2)N(C)C(=O)C2(CCCC2)NC(=O)[C@@H]2CCCN2C(=O)[C@H](CCc2ccc(C(F)(F)F)c(Cl)c2)NC(=O)CN(C)C(=O)[C@@H]1Cc1ccc(C(F)(F)F)cc1 [PP0182] ([NMeL]I[NMeA][Aze][NPrPhe(4-CF3)][Sar][hPhe(3-Cl-4-CF3)]P[Ac5c][NMeGly(cPent)][NMeD]-{3Oxa8azabicyclo(3.2.1)octane}; lactam N-11) | B (a compound having 3 or more and less than 10 is denoted as B) | C (A compound having a KD ratio of 0.1 or more and less than 3 is denoted as C)
CCCN1C(=O)[C@@H]2CCN2C(=O)[C@H](C)N(C)C(=O)[C@H]([C@@H](C)CC)NC(=O)[C@H](CC(C)C)N(C)C(=O)C[C@@H](C(=O)N2CCOC2)N(C)C(=O)[C@H](C2CCCC2)N(C)C(=O)C2(CCCC2)NC(=O)[C@@H]2CCCN2C(=O)[C@H](CCc2ccc(C(F)(F)F)c(Cl)c2)NC(=O)CN(C)C(=O)[C@@H]1Cc1ccc(C(F)(F)F)cc1 [PP0183] ([NMeL]I[NMeA][Aze][NPrPhe(4-CF3)][Sar][hPhe(3-Cl-4-CF3)]P[Ac5c][NMeGly(cPent)][NMeD]-{Oxazolidin(3-yl)}; lactam N-11) | B (a compound having 3 or more and less than 10 is denoted as B) | C (A compound having a KD ratio of 0.1 or more and less than 3 is denoted as C)
CCCN1C(=O)[C@@H]2CCN2C(=O)[C@H](C)N(C)C(=O)[C@H]([C@@H](C)CC)NC(=O)[C@H](CC(C)C)N(C)C(=O)C[C@@H](C(=O)N2CCN(C3COC3)CC2)N(C)C(=O)[C@H](C2CCCC2)N(C)C(=O)C2(CCCC2)NC(=O)[C@@H]2CCCN2C(=O)[C@H](CCc2ccc(C(F)(F)F)c(Cl)c2)NC(=O)CN(C)C(=O)[C@@H]1Cc1ccc(C(F)(F)F)cc1 [PP0184] ([NMeL]I[NMeA][Aze][NPrPhe(4-CF3)][Sar][hPhe(3-Cl-4-CF3)]P[Ac5c][NMeGly(cPent)][NMeD]-{Piperazinyl(4-(3-oxetanyl))}; lactam N-11) | B (a compound having 3 or more and less than 10 is denoted as B) | C (A compound having a KD ratio of 0.1 or more and less than 3 is denoted as C)
CCCN1C(=O)[C@@H]2CCN2C(=O)[C@H](C)N(C)C(=O)[C@H]([C@@H](C)CC)NC(=O)[C@H](CC(C)C)N(C)C(=O)C[C@@H](C(=O)N2CCC(C)CC2)N(C)C(=O)[C@H](C2CCCC2)N(C)C(=O)C2(CCCC2)NC(=O)[C@@H]2CCCN2C(=O)[C@H](CCc2ccc(C(F)(F)F)c(Cl)c2)NC(=O)CN(C)C(=O)[C@@H]1Cc1ccc(C(F)(F)F)cc1 [PP0185] ([NMeL]I[NMeA][Aze][NPrPhe(4-CF3)][Sar][hPhe(3-Cl-4-CF3)]P[Ac5c][NMeGly(cPent)][NMeD]-{Piperidide(4-Me)}; lactam N-11) | B (a compound having 3 or more and less than 10 is denoted as B) | C (A compound having a KD ratio of 0.1 or more and less than 3 is denoted as C)
CCCN1C(=O)[C@@H]2CCN2C(=O)[C@H](C)N(C)C(=O)[C@H]([C@@H](C)CC)NC(=O)[C@H](CC(C)C)N(C)C(=O)C[C@@H](C(=O)N2CCC(C)(C)C2)N(C)C(=O)[C@H](C2CCCC2)N(C)C(=O)C2(CCCC2)NC(=O)[C@@H]2CCCN2C(=O)[C@H](CCc2ccc(C(F)(F)F)c(Cl)c2)NC(=O)CN(C)C(=O)[C@@H]1Cc1ccc(C(F)(F)F)cc1 [PP0186] ([NMeL]I[NMeA][Aze][NPrPhe(4-CF3)][Sar][hPhe(3-Cl-4-CF3)]P[Ac5c][NMeGly(cPent)][NMeD]-X25; lactam N-11) | B (a compound having 3 or more and less than 10 is denoted as B) | C (A compound having a KD ratio of 0.1 or more and less than 3 is denoted as C)
CCCN1C(=O)CN(C)C(=O)CN(C)C(=O)[C@H]([C@@H](C)CC)NC(=O)[C@H](CC(F)(F)F)N(C)C(=O)C[C@@H](C(=O)N2CCOCC2)N(C)C(=O)[C@H](C2CCCC2)N(C)C(=O)C2(CCCC2)NC(=O)[C@@H]2CCCN2C(=O)[C@H](CCc2ccc(C(F)(F)F)c(Cl)c2)NC(=O)CN(C)C(=O)[C@@H]1Cc1ccc(C(F)(F)F)cc1 [PP0187] ([NMeAbu(4,4,4-F3)]I[Sar][Sar][NPrPhe(4-CF3)][Sar][hPhe(3-Cl-4-CF3)]P[Ac5c][NMeGly(cPent)][NMeD]-Morpholide; lactam N-11) | C (A compound having a KD ratio of 0.1 or more and less than 3 is denoted as C) | B (a compound having 3 or more and less than 10 is denoted as B)
CCCN1C(=O)CN(C)C(=O)CN(C)C(=O)[C@H]([C@@H](C)CC)NC(=O)[C@H](C2CCC2)N(C)C(=O)C[C@@H](C(=O)N2CCOCC2)N(C)C(=O)[C@H](C2CCCC2)N(C)C(=O)C2(CCCC2)NC(=O)[C@@H]2CCCN2C(=O)[C@H](CCc2ccc(C(F)(F)F)c(Cl)c2)NC(=O)CN(C)C(=O)[C@@H]1Cc1ccc(C(F)(F)F)cc1 [PP0188] ([NMeGly(cBu)]I[Sar][Sar][NPrPhe(4-CF3)][Sar][hPhe(3-Cl-4-CF3)]P[Ac5c][NMeGly(cPent)][NMeD]-Morpholide; lactam N-11) | C (A compound having a KD ratio of 0.1 or more and less than 3 is denoted as C) | B (a compound having 3 or more and less than 10 is denoted as B)
CCC[C@H]1C(=O)N[C@@H]([C@@H](C)CC)C(=O)N(C)CC(=O)N(C)CC(=O)N(CCC)[C@@H](Cc2ccc(C(F)(F)F)cc2)C(=O)N(C)CC(=O)N[C@@H](CCc2ccc(C(F)(F)F)c(Cl)c2)C(=O)N2CCC[C@H]2C(=O)NC2(CCCC2)C(=O)N(C)[C@@H](C2CCCC2)C(=O)N(C)[C@H](C(=O)N2CCOCC2)CC(=O)N1C [PP0189] ([NMeNva]I[Sar][Sar][NPrPhe(4-CF3)][Sar][hPhe(3-Cl-4-CF3)]P[Ac5c][NMeGly(cPent)][NMeD]-Morpholide; lactam N-11) | C (A compound having a KD ratio of 0.1 or more and less than 3 is denoted as C) | B (a compound having 3 or more and less than 10 is denoted as B)
CCCN1C(=O)CN(C)C(=O)CN(C)C(=O)[C@H]([C@@H](C)CC)NC(=O)[C@H](CC)N(C)C(=O)C[C@@H](C(=O)N2CCOCC2)N(C)C(=O)[C@H](C2CCCC2)N(C)C(=O)C2(CCCC2)NC(=O)[C@@H]2CCCN2C(=O)[C@H](CCc2ccc(C(F)(F)F)c(Cl)c2)NC(=O)CN(C)C(=O)[C@@H]1Cc1ccc(C(F)(F)F)cc1 [PP0190] ([NMeAbu]I[Sar][Sar][NPrPhe(4-CF3)][Sar][hPhe(3-Cl-4-CF3)]P[Ac5c][NMeGly(cPent)][NMeD]-Morpholide; lactam N-11) | B (a compound having 3 or more and less than 10 is denoted as B) | B (a compound having 3 or more and less than 10 is denoted as B)
